System: lamin b1 (LMNB1) gene expression
Assay: lamin B1 (LMNB1) gene expression assay (qPCR) in skin equivalents, with TNF-α to simulate photoaged skin
Assay type: cell-based, human
Method: The effects of IR light, hexyl resorcinol (HR), and combinations thereof on lamin B1 gene expression in the presence of TNF-α was tested as follows. TNF-α is known to play a primary role in the inflammation process upon ultraviolet (UV) irradiation and is stimulated by UVB.
Three human full-thickness skin equivalents (MatTek, Ashland, Mass.) were used for each treatment. The skin equivalents were treated with one of the following: (i) 100 ng/ml TNF-α in a medium (1× phenol-red free Hank's buffered saline solution (HBSS), (ii) a placebo formulation, (iii) a hexyl resorcinol formulation containing 0.5 weight percent hexyl resorcinol (HR) in the placebo formulation, (iv) infrared (IR) light (wavelength 830 nm) at 0.5 mW/cm^2 for 10 min (i.e. fluence at 0.3 J/cm^2), or (iv) combinations of these. TNF-α was used to simulate photoaged skin.
The placebo formulation contained the ingredients in Table 1. The hexyl resorcinol formulation contained the same ingredients plus 0.5 wt % hexyl resorcinol.
For the combination treatments, the formulations were first topically applied to the skin equivalents and left to stand for two hours. Next, the skin equivalents were irradiated with the IR light. Then the skin equivalents were incubated with or without 100 ng/ml TNF-α in the phenol-red-free medium for 24 hours.
Afterwards, the skin equivalents were collected in RNAlater solution (ThermoFisher Scientific, Bridgewater, N.J., USA) for RNA purification. The total RNAs were purified using a Qiagen RNeasy kit (Valencia, Calif., USA) following the manufacturer's instructions. RNA concentration was assessed using a Nanodrop 2000 spectrophotometer (ThermoFisher Scientific, Bridgewater, N.J., USA). Complementary DNA (cDNA) was performed using a High Capacity cDNA kit (ThermoFisher Scientific, Bridgewater, N.J., USA). TaqMan® gene expression assays for lamin b1 (LMNB1) and TATA-Box Binding Protein (TBP) and TaqMan® gene expression master mix from ThermoFisher Scientific (Bridgewater, N.J., USA) were used. Realtime polymerase chain reactions (qPCRs) of each treatment were performed using 5 ul of the 15 ul mixture of cDNAs pooled from three equivalent tissue replicates (i.e. mixing 5 ul of cDNA from each equivalent replicate). qPCRs were performed using a QuantStudio™ 7 Flex System (ThermoFisher Scientific, Bridgewater, N.J., USA). The RQ (relative quantitation) was calculated using the formula 2^-ΔΔCt.
The effects of red light (wavelength 640 nm, 0.3 J/cm^2) and HR on lamin B1 gene expression in the presence of TNF-α was tested using the same method as Example 1.

[1] = Example 2, treatment alone (no light, no other treatment)
[2] = treatment alone (no light, no other treatment), human full-thickness skin equivalents

Molecule | change in lamin B1 gene expression (combination with red light) | Induced LMNB1 (RQ) [1] [RQ] | Induced LMNB1 vs Untreated Control (RQ fold changes) [1] [RQ fold changes] | Difference of Induced LMNB1 vs Untreated Control (RQ fold changes) [2] [RQ fold changes] | LMNB1 Induction (RQ) [2] [RQ]
CCCCCCc1ccc(O)cc1O [hexyl resorcinol, 4-hexylresorcinol] | no substantial change |  |  |  | 
TNF-α |  | 1.55 | 0.55 | 0.55 | 1.55

From patent US20200405603A1, “COMPOSITIONS AND METHODS FOR TREATING SKIN CONDITIONS USING INFRARED LIGHT AND RESORCINOLS” (Johnson & Johnson Consumer Inc., priority 2019, published 2020)
